The values that follow come from patent US20260193293A1, “PEPTIDES CAPABLE OF INHIBITING PROTEIN-PROTEIN INTERACTIONS AT GABAB1A SUBUNIT AND USES THEREOF” (UNIVERSITY OF COPENHAGEN, priority 2022, published 2026).

Series [1] addresses Sushi domains (SD1/2) protein. Briefly: Fluorescence polarization (FP) competition assay with AJAP-1probe, calculated Ki. Format: binding. In a few lines: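 Ki values were derived from IC50s (sigmoidal fits, ≥ triplicate), with probe Kd obtained by saturation titration of SD1/2. Peptides displaced a 25 nM TAMRA-labelled probe; polarization read at 530/580 nm in 1% BSA-containing PBS, pH 7.4, room temperature.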

In a further series the target is T1, GB1a subunit (Mus musculus, UniProt Q9WV18).
T1 construct: using the homogenized membrane fraction of wild type mouse brains; from tissue; host or cells: adult mouse brain, solubilized membrane-enriched fraction
T1 sequence (Q9WV18 20-960): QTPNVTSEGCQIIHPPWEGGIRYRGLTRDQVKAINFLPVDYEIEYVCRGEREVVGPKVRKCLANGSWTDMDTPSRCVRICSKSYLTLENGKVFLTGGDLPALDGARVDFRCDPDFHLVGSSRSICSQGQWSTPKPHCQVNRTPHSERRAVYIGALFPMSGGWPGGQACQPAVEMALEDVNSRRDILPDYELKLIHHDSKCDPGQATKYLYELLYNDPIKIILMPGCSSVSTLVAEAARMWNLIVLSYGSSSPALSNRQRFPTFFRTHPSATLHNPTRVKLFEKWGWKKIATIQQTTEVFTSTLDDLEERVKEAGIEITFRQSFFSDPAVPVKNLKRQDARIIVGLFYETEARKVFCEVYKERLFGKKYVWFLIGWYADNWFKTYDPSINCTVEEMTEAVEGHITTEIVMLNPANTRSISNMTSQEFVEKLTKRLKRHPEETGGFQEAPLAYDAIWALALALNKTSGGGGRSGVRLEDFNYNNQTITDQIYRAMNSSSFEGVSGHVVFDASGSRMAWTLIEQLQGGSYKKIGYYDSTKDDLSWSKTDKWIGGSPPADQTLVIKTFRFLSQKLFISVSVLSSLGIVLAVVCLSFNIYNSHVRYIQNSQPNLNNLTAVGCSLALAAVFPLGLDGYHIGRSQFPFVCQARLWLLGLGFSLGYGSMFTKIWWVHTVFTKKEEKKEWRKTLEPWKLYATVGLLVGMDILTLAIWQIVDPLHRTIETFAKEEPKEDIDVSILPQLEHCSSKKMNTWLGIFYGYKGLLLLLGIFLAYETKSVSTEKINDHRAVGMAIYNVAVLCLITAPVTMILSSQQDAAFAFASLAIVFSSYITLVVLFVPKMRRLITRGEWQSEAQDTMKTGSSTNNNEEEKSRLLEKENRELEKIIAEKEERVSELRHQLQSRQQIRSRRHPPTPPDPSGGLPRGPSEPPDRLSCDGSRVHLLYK
Description: Pull-down from mouse brain membrane fraction, immunoblotting. Format: binding. Conditions: immobilized peptides, whole-brain lysate. As to the method: Covalent immobilization of peptides. Peptides AJAP-1WT, 17 and 20 comprising a C-terminal Cys and a PEG2 linker, were loaded covalently to Dynabeads M-270 Epoxy beads (Thermo Fischer Scientific) according to the protocol of the manufacturer. 25 μL DMSO stocks of peptides (10 mM) were diluted 15 times into 350 μL coupling buffer (100 mM PBS buffer containing 2 M […] and 10 mM TCEP, PH=7.4) and agitated overnight at 37° C. with Dynabeads M-270 Epoxy beads (5 mg, ~3.3×10^8 beads), which had been washed and equilibrated with coupling buffer before. After removing excess peptides, the Dynabeads M-270 Epoxy beads were washed three times and equilibrated with 100 mM PBS buffer, pH=7.4 and stored at 4° C.
Preparation of whole-brain lysates. Dissected adult mouse brains were placed in ice-cold homogenization buffer (320 mM sucrose, 4 mM HEPES, PH 7.5, 1 mM EDTA, 1 mM EGTA, supplemented with complete EDTA-free protease inhibitor mixture (Roche), 1 mL per 100 mg of brain) and homogenized with a glass-Teflon homogenizer (40 passes) on ice. The homogenized material was cleared by centrifugation at 500×g (4° C., 15 min). […]
A general note: Immunoblotting shows a protein as a band on a membrane.

Another series has as its target T2, GB1a/2 receptors (Homo sapiens, UniProt Q9UBS5).
T2 construct: Flag; expressed in transfected cells; host or cells: HEK293T cells stably expressing chimeric Gαq/i
Briefly: SRE-Luciferase accumulation assay. Format: cell-based. The settings on record: in the absence of AJAP-1. From the text:
(§1) To elucidate whether our developed peptides AJAP-1WT, 16 and 20 could interact and disrupt the trans-interaction between AJAP-1 and GB1a/2Rs, we used an established accumulation assay based on coupling GB1a/2Rs to phospholipase C (PLC) via chimeric Gαqi (Conklin et al. 1993). PLC activity is then monitored with a serum responsive element-luciferase (SRE-Luciferase) reporter amplifying the GB1a/2Rs response (Yoo et al. 2017) (FIG. 5).
(§2) HEK293T cells stably expressing Gαq/i were transiently transfected with Flag-GB1a, Flag-GB2 and SRE-FLuc with or without AJAP-1. In order to ensure GB1a/2 binding of AJAP-1 in trans, a pool of HEK293T-Gαq/i cells expressing AJAP-1 was mixed with HEK293-Gαq/i cells expressing Flag-GB1a, Flag-GB2 and SRE-FLuc. Transfected cells were distributed into 96-well microplates (Greiner Bio-One) at a density of 80,000 cells/well. After 24 h, the culture medium was replaced with Opti-MEM™-GlutaMAX™ Peptides were incubated in Opti-MEM™-GlutaMAX™ for 10 minutes. In presence of peptide, GB1a/2 receptors were activated with various concentrations of GABA for 6 h. FLuc activity in lysed cells was measured using the Luciferase® Assay Kit (Promega) and a Spark® microplate reader. Luminescence signals were adjusted by subtracting the luminescence obtained when expressing SRE-FLuc fusion proteins alone.

The target in series [2] is T3, GB1a/2 receptors in presence of AJAP-1 in trans (Homo sapiens, UniProt Q9UBS5).
T3 construct: Flag; expressed in transfected cells; host or cells: HEK293T cells stably expressing chimeric Gαq/i
T3 sequence (Q9UBS5 15-961 limits assumed): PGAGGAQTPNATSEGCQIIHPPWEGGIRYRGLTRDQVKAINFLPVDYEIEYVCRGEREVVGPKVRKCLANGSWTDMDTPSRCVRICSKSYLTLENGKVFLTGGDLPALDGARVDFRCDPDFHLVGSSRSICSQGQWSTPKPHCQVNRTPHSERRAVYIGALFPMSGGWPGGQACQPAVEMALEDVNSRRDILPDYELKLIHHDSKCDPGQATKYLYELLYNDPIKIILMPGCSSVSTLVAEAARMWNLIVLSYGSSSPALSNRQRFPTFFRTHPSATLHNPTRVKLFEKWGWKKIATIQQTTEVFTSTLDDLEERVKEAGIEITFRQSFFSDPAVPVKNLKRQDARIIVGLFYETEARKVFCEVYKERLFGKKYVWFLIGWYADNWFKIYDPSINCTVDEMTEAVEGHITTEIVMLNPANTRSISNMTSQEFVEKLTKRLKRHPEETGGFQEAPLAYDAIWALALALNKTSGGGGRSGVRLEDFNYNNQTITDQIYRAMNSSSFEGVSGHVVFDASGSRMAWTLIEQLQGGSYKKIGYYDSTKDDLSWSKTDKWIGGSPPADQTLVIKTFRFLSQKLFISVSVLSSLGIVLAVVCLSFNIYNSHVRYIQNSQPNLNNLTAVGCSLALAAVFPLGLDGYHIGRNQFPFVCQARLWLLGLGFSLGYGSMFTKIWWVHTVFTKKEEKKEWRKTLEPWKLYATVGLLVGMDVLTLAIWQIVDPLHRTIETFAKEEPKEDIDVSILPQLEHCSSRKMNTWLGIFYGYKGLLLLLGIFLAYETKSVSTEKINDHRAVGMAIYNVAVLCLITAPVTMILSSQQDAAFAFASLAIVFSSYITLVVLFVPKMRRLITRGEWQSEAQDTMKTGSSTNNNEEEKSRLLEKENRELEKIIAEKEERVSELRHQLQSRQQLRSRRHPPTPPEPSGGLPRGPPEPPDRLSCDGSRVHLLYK
T3 sequence (O75899 42-941 partner): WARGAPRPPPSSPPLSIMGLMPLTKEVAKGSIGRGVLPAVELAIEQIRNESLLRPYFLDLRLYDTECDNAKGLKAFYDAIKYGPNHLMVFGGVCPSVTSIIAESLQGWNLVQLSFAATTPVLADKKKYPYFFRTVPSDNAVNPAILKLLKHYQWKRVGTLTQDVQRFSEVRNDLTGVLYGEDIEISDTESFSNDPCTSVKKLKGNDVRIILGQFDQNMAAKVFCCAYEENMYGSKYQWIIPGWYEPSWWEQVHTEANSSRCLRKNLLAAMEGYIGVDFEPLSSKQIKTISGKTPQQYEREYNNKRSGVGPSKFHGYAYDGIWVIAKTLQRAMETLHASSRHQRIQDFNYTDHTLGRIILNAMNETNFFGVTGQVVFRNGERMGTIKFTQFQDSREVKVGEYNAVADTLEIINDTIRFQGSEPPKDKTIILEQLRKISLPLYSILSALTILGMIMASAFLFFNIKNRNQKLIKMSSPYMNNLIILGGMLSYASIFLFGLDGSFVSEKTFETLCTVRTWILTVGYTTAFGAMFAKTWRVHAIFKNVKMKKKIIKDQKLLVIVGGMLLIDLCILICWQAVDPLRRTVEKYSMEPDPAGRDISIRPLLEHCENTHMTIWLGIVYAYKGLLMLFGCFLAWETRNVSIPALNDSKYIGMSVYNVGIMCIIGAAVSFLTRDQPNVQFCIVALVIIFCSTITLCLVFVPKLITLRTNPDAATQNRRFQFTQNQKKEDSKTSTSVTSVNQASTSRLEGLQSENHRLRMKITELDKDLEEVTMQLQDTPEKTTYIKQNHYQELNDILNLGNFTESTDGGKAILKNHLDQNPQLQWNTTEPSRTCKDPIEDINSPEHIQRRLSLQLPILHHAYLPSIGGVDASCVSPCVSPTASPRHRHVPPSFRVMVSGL
Description: SRE-Luciferase accumulation assay. The series is classed as cell-based. The settings on record: 10 μM peptide; for basal activity of GB1a/2Rs: in presence of AJAP-1 in trans.
Excerpt: as §1, §2

The conditions of series [3]: human, plasma.
Description: For time-course assay, 360 μL human plasma was pre-warmed up at 37° C. for 15 min and then spiked with 40 μL of tested peptides (1 mM in 1×PBS). […] Subsequently, 100 μL acetonitrile was added into and then samples were incubated overnight at −20° C. After that, all samples were centrifuged at 13,400 rpm for 10 min and the supernatant was filtered and then analyzed by LC-MS and UPLC (Waters). The area under the curve (AUC) was determined and normalized to the value of the first time point. The half-life (T1/2) was obtained by fitting the data to the one-phase decay equation in GraphPad Prism 9 and expressed as the mean of three individual experiments. For end-point assay, 108 μL human plasma was pre-warmed up at 37° C. for 15 min and then spiked with 12 μL of tested peptides (1 mM in 1×PBS).
The subject of series [4] is HeLa cell line stably expressing HaloTag-GFP fusion protein. Description: Chloroalkane penetration assay (CAPA). The settings on record: cell membrane permeability, CA-tagged peptides, mean ± SEM, n ≥ 3. Format: in vitro ADME. As to the method: The HeLa cell line used for CAPA assay was generated by Chenoweth and co-workers and provided by Kritzer and co-workers. The cells stably express a HaloTag-GFP fusion protein anchored through a mitochondria targeting peptide exposed to the cytosol. For CAPA, Hela cells were seeded using DMEM supplemented with FBS in a 96-well plate one day before the experiment at a density of 4×10^4 cells/well. Just before the assay, the growth media was aspirated off and replaced with Opti-MEM assay media (100 μL/well). DMSO stocks of peptides (10 mM) were diluted in Opti-MEM to prepare serial dilutions of peptides in a separate 96-well PCR plate ensuring the final concentration of DMSO was kept consistent and below 1%. Subsequently, 25 μL of peptide solution was added into each well and the plate was incubated for 4 h at 37° C. with 5% CO2. After aspirating the assay media off, cells were washed with fresh Opti-MEM (80 μL/well) for 15 min at rt. Following removal of the washing media, cells were incubated with 5 μM CA-TAMRA in Opti-MEM (50 μL/well) for 15 min. Non CATAMRA control wells were incubated with Opti-MEM alone (50 μL/well). […] After aspiration, cells were trypsinized using clear Trypsin (20 μL/well, 10 min at 37° C.), resuspended in PBS containing 2% FBS ([…]), and analyzed using a benchtop flow cytometer (Guava EasyCyte, EMD Millipore).

[5] abbreviates: CPP tagged peptides overview, SD1/2 binding affinity, mean ± SEM, n ≥ 3, read-out: Ki.

Read-outs that look alike come from different tables or passages of the source. Non-standard residues stand in square brackets, D forms with d. Residues, ends and D or L forms follow the SMILES beside them. 2Nal = N[C@@H](Cc1ccc2ccccc2c1)C(=O)O

T2 sequence (Q9UBS5 15-961 limits assumed): as the sequence (Q9UBS5 15-961 limits assumed) above
T2 sequence (O75899 42-941 partner): as the sequence (O75899 42-941 partner) above

As usually defined, the Ki is a dissociation constant, usually derived from enzyme kinetics or from competition with a known ligand. What is called half-life is how long it takes for the measured level to halve. Read a low half-life as fast loss. Turning to `CC[C@H](C)[C@H](NC(=O)[C@H](Cc1ccccc1)NC(=O)[C@H](CCC(=O)O)NC(=O)[C@@H](NC(=O)[C@H](CCC(=O)O)NC(C)=O)[C@@H](C)O)C(=O)N[C@@H](C)C(=O)N[C@@H](Cc1c[nH]c2ccccc12)C(=O)NCC(=O)N1CCC[C@H]1C(=O)N[C@H](C(=O)NCC(=O)N[C@@H](CC(=O)O)C(=O)N[C@@H](CCC(=O)O)C(=O)N[C@@H](CC(=O)O)C(N)=O)[C@@H](C)O` [AJAP-1WT, Ac-ETEFIAWGPTGDED-NH2] (Ac-ETEFIAWGPTGDED-NH2), the Ki in series [1] (purified peptides, read-out: Ki) was 31 ± 1 nM. In addition, the “pull-down of native GB1a” value on GB1a subunit was “ability to bind and enrich full-length GB1a subunit”. The “Emax values of GABA-activated GB1a/2Rs” value on GB1a/2 receptors was “did not affect the Emax values”. Moreover, in series [2], the “basal activity of GB1a/2Rs” value was “elevated basal activity”. In addition, the half-life in series [3] was > 48 h.

As for “DDDWIDWYDSDDDYGRKKRRQRRR [Peptide 16-Tat]”, the Ki in series [1] (setting [5]) was 71 ± 1 nM; in series [1] (Table 14, CPPs tagged peptides, read-out: Ki (nM) mean ± SEM) it was 70.5 ± 0.3 nM. In series [4], the “CP50” value came out at 19 ± 0.4 µM.

For `CC[C@H](C)[C@H](NC(=O)[C@H](CC(=O)O)NC(=O)[C@H](CC(=O)O)NC(=O)[C@H](Cc1ccc(O)cc1)NC(=O)[C@H](CC(=O)O)NC(=O)[C@H](CC(=O)O)NC(=O)[C@H](CO)NC(=O)[C@H](CC(=O)O)NC(=O)[C@H](CCC(=O)O)NC(=O)[C@H](Cc1ccc2ccccc2c1)NC(C)=O)C(=O)N[C@@H](CC(=O)O)C(=O)N[C@@H](CC(=O)O)C(=O)N[C@@H](CC(=O)O)C(=O)N[C@@H](Cc1c[nH]c2ccccc12)C(N)=O` [Scr-20, reference compound] (Ac-[2Nal]EDSDDYDDIDDDW-NH2), the Ki in series [1] (Table 16, ncAAs incorporated peptides, read-out: Ki (nM) mean ± SEM) is 31200 ± 989 nM. The “pull-down of native GB1a” value at GB1a subunit is “did not interact with the GB1a subunit”. At GB1a/2 receptors, the “Emax values of GABA-activated GB1a/2Rs” value is listed as “did not affect the Emax values”. The “basal activity of GB1a/2Rs” value in series [2] is “significant decreased basal activity”.

For the compound `CC[C@H](C)[C@H](NC(=O)[C@H](Cc1c[nH]c2ccccc12)NC(=O)[C@H](CC(=O)O)NC(=O)[C@H](CC(=O)O)NC(=O)[C@H](CC(=O)O)NC(=O)[C@H](CCC(=O)O)NC(C)=O)C(=O)N[C@@H](CC(=O)O)C(=O)N[C@@H](Cc1c[nH]c2ccccc12)C(=O)N[C@@H](Cc1ccc(O)cc1)C(=O)N[C@@H](CC(=O)O)C(=O)N[C@@H](CO)C(=O)N[C@@H](CC(=O)O)C(=O)N[C@@H](CC(=O)O)C(=O)N[C@@H](CC(=O)O)C(N)=O` [Peptide 16] (Ac-EDDDWIDWYDSDDD-NH2), the Ki in series [1] (setting [5]) is 3.2 ± 0.2 nM; in series [1] (Table 1, affinity maturation, mean ± SEM, n ≥ 3, read-out: Ki), 3.2 ± 0.2 nM; in series [1] (Table 13, peptides for affinity maturation, read-out: Ki (nM) mean ± SEM), 3.2 ± 0.2 nM. The “Emax values of GABA-activated GB1a/2Rs” value on GB1a/2 receptors is “did not affect the Emax values”. In series [2], the “reduction of negative allosteric modulation effects of AJAP-1 at GB1a/2Rs in trans” value is given as “to a greater extent than AJAP-1WT peptide”. The “basal activity of GB1a/2Rs” value in series [2] was “elevated basal activity”. Besides, the half-life in series [3] is > 48 h.
